From patent publication US11667602B2, “Compounds and their use” (AstraZeneca AB, priority 2020, dated 2023)
≈ marks a conversion by molar mass, not a printed value.

What was measured:
[1] = Human Liver Microsomal Stability (Test C); assay type: in vitro ADME; settings: human, liver microsomes
How it was run: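 Human liver microsome incubation per the Wernevik et al. integrated DMPK panel protocol. Intrinsic clearance reported as CLint in μl/min/mg protein, averaged arithmetically over repeat runs.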

human RXFP1 = molecular target: T1, human RXFP1 (Homo sapiens, UniProt Q9HBX9); test: RXFP1 Hu cAMP (Test A); assay type: cell-based; design: expressed in transfected cells; host or cells: Jump-In T-REx CHO-K1 cells (ThermoFisher), induced with 10 ng/ml doxycycline for 24 h; settings: RXFP1 Hu cAMP; for EC50: read-out: Test A EC50
T1 sequence (Q9HBX9 1-757): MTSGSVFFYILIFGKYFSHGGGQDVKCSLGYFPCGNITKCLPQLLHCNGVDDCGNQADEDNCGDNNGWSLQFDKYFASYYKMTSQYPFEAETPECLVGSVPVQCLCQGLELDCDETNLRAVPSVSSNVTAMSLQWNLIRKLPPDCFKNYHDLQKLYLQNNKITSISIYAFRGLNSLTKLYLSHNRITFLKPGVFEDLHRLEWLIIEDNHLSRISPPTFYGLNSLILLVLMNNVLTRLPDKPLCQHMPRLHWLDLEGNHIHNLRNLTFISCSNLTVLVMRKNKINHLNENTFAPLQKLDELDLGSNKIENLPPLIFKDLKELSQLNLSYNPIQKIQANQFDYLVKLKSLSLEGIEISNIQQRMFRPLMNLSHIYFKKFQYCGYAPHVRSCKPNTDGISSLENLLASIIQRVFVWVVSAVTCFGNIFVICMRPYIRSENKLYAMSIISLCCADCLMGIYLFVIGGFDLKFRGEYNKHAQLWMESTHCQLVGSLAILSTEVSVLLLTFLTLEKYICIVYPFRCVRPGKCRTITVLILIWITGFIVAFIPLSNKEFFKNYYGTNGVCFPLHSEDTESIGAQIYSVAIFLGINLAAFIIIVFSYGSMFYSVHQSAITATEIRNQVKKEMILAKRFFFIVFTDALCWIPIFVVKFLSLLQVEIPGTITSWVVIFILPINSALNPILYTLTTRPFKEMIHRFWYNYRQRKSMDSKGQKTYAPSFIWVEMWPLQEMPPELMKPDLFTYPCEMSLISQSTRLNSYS
How it was run: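 Cells: CHO-K1 stably carrying human RXFP1, expressed after 24 h 10 ng/ml doxycycline; 0.5 mM IBMX final, HTRF detection after 2 h at room temperature.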

Solubility (Test F) = assay type: physicochemical; settings: arithmetic mean if run multiple times
Procedure: The assay was conducted according to the Solubility Assay described in pages 164-167 of Wernevik, J. et al., “A Fully Integrated Assay Panel for Early Drug Metabolism and Pharmacokinetics Profiling”, Assay and Drug Development Technologies, 2020, 18(4), 157-179. Data are reported in Table 36 as solubility ([…]. Where the assay was run multiple times for the same compound, the arithmetic mean is reported.

[2] = Rat Hepatocyte Stability (Test E); assay type: in vitro ADME; settings: rat, hepatocytes, geometric mean if run multiple times
How it was run: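 Run per the published AstraZeneca-type rat hepatocyte stability protocol (Wernevik et al. panel). Values are mean intrinsic clearance, Clint in μl/min/10^6 cells; geometric mean used for repeated runs.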

[3] = Human Plasma Protein Binding (Test B); assay type: in vitro ADME; settings: fraction unbound (fu)
How it was run: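 Human plasma protein binding run per the published Wernevik et al. (2020) integrated DMPK panel protocol. Values are fraction unbound (fu, % free); repeat runs averaged arithmetically.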

For `COc1cc(F)c(O[C@H]2CC[C@@H](C(=O)O)CC2)cc1C(=O)NC1C(C(=O)NCCCC(F)(F)F)[C@@H]2CC[C@H]1C2` (stereo partly drawn) [Example 175, (1S,4s)-4-(2-Fluoro-4-methoxy-5-(((1S,2R,3S,4R)-3-((4,4,4-trifluorobutyl)carbamoyl)bicyclo[2.2.1]heptan-2-yl)carbamoyl)phenoxy)cyclohexane-1-carboxylic acid], the microsomal CLint [1] was 5.8 µL/min/mg, the “Test A Sinf” value (human RXFP1) was 100% and the EC50 (human RXFP1) was greater than 5900 nM. The solubility (Solubility (Test F)) was greater than 1000 µM, the hepatocyte CLint [2] was 110 µL/min/1e6 cells and the “Test B Human Plasma Protein Binding (% free)” value [3] was 14 % free.

With `COc1cc(C#N)c(O[C@H]2CC[C@@](C)(C(=O)O)CC2)cc1C(=O)N[C@@H]1[C@H]2CC[C@H](C2)[C@@H]1C(=O)NCC(C)(F)F` [Example 96] the microsomal CLint [1] was less than 3 µL/min/mg, the “Test A Sinf” value (human RXFP1) was 97% and the EC50 (human RXFP1) was 440 nM. For the same compound, the solubility (Solubility (Test F)) was 890 µM (≈ 487 µg/mL), the hepatocyte CLint [2] was 24 µL/min/1e6 cells and the “Test B Human Plasma Protein Binding (% free)” value [3] was 26 % free.

In the case of `COc1cc(F)c(O[C@H]2CC[C@@H](C(=O)O)CC2)cc1C(=O)N[C@@H]1[C@H]2CC[C@H](C2)[C@@H]1C(=O)NC1CC(F)(F)C1` [Example 33, (1S,4s)-4-(5-(((1S,2R,3S,4R)-3-((3,3-Difluorocyclobutyl)carbamoyl)bicyclo[2.2.1]heptan-2-yl)carbamoyl)-2-fluoro-4-methoxyphenoxy)cyclohexane-1-carboxylic acid], the microsomal CLint [1] is reported as less than 3 µL/min/mg, the “Test A Sinf” value (human RXFP1) is reported as 88% and the EC50 (human RXFP1) is reported as greater than 5000 nM. For the same compound, the solubility (Solubility (Test F)) was greater than 1000 µM, the hepatocyte CLint [2] was 110 µL/min/1e6 cells and the “Test B Human Plasma Protein Binding (% free)” value [3] was 15 % free.

In the case of `CCC1(CNC(=O)[C@H]2[C@@H]3CC[C@@H](C3)[C@H]2NC(=O)c2cc(O[C@H]3CC[C@@](C)(C(=O)O)CC3)c(C#N)cc2OC)CCC1` [Example 86], the microsomal CLint [1] is reported as 64 µL/min/mg, the “Test A Sinf” value (human RXFP1) is reported as 115% and the EC50 (human RXFP1) is reported as 20 nM. For the same compound, the solubility (Solubility (Test F)) was 540 µM (≈ 305 µg/mL), the hepatocyte CLint [2] was 26 µL/min/1e6 cells and the “Test B Human Plasma Protein Binding (% free)” value [3] was 4.1 % free.

With `CCOCC1(CNC(=O)[C@H]2[C@@H]3CC[C@@H](C3)[C@H]2NC(=O)c2cc(O[C@H]3CC[C@@](C)(C(=O)O)CC3)c(C#N)cc2OC)CCC1` [Example 104] the microsomal CLint [1] was 59 µL/min/mg, the “Test A Sinf” value (human RXFP1) was 122% and the EC50 (human RXFP1) was 270 nM. The solubility (Solubility (Test F)) was 920 µM (≈ 548 µg/mL), the hepatocyte CLint [2] was 28 µL/min/1e6 cells and the “Test B Human Plasma Protein Binding (% free)” value [3] was 6.4 % free.

With `COc1cc(F)c(O[C@H]2CC[C@@](C)(C(=O)O)CC2)cc1C(=O)N[C@@H]1CCC[C@@H]1C(=O)NCC1(C)CC1` [Example 68] the microsomal CLint [1] was 4.4 µL/min/mg, the “Test A Sinf” value (human RXFP1) was 97% and the EC50 (human RXFP1) was 840 nM. For the same compound, the solubility (Solubility (Test F)) was greater than 1000 µM, the hepatocyte CLint [2] was 14 µL/min/1e6 cells and the “Test B Human Plasma Protein Binding (% free)” value [3] was 14 % free.

With `COc1cc(F)c(-c2ccc3c(c2)OC[C@@H]3CC(=O)O)cc1C(=O)N[C@@H]1[C@H]2CC[C@H](C2)[C@@H]1C(=O)Nc1cccc(S(=O)(=O)C(F)(F)F)c1` [Example 254] the microsomal CLint [1] was 31 µL/min/mg, the “Test A Sinf” value (human RXFP1) was 114% and the EC50 (human RXFP1) was 34 nM. For the same compound, the solubility (Solubility (Test F)) was greater than 1000 µM, the hepatocyte CLint [2] was 12 µL/min/1e6 cells and the “Test B Human Plasma Protein Binding (% free)” value [3] was 0.30 % free.

With `COc1cc(F)c(-c2ccc(C(=O)O)cc2)cc1C(=O)N[C@@H]1[C@H]2CC[C@H](C2)[C@@H]1C(=O)Nc1ccc(S(F)(F)(F)(F)F)cc1` [Example 210, 2′-Fluoro-4′-methoxy-5′-(((1S,2R,3S,4R)-3-((4-(pentafluoro-λ^6-sulfaneyl)phenyl)carbamoyl)bicyclo[2.2.1]heptan-2-yl)carbamoyl)-[1,1′-biphenyl]-4-carboxylic acid] the microsomal CLint [1] was less than 3 µL/min/mg, the “Test A Sinf” value (human RXFP1) was 50% and the EC50 (human RXFP1) was greater than 3600 nM. The solubility (Solubility (Test F)) was 67 µM (≈ 42.1 µg/mL), the hepatocyte CLint [2] was 10 µL/min/1e6 cells and the “Test B Human Plasma Protein Binding (% free)” value [3] was 0.049 % free.

For `COc1cc(F)c(O[C@H]2CC[C@@H](C(=O)O)CC2)cc1C(=O)N[C@@H]1[C@H]2CC[C@H](C2)[C@@H]1C(=O)Nc1cc(C(F)(F)F)ncn1` [Example 31], the microsomal CLint [1] was 18 µL/min/mg, the “Test A Sinf” value (human RXFP1) was 81% and the EC50 (human RXFP1) was 750 nM. The solubility (Solubility (Test F)) was 940 µM (≈ 559 µg/mL), the hepatocyte CLint [2] was 13 µL/min/1e6 cells and the “Test B Human Plasma Protein Binding (% free)” value [3] was 3.7 % free.
